Data from patent publication US20070160684A1, “Methods for increasing cancer cell chemosensitivity” (priority 2005, published 2007).

Key:
ATM = ATM (Homo sapiens, UniProt Q13315); conditions: reported (Veuger 2003; Willmore 2004); cited from earlier work
DNA-PK = DNA-PK (Homo sapiens, UniProt P78527); conditions: reported (Veuger 2003; Willmore 2004); cited from earlier work
ATR = ATR (Homo sapiens, UniProt Q13535); conditions: reported (Veuger 2003; Willmore 2004); cited from earlier work
[1] = tested on: H2AX Ser139 phosphorylation; experiment: Western analysis of H2AX phosphorylation in Pa-4 and Pa-4/HMGA2 cells; assay type: cell-based; conditions: 4 mM caffeine or 10 μM NU7026 1 hour, then with 1 μM Dox 2 hours
Procedure: To ascertain whether HMGA2 effects Dox-induced ATM signaling activation, phosphorylation of ATM Ser1981 and H2AX Ser139 was assayed in the presence and absence of Dox (2 μM in ATM assays, 1 μM in H2AX assays). At various timepoints after Dox treatment, cell lysates were removed and subjected to Western analyses using monoclonal anti-phospho-ATM antibodies (Ser1981), polyclonal anti-ATM antibodies (Santa Cruz Biotechnology, Santa Cruz, Calif.), monoclonal anti-phospho-H2AX antibodies ([…]) (Upstate Cell Signaling), or anti-H2AX antibodies. Control Western analyses were performed using monoclonal anti-actin antibodies. […] HeLa and HeLa/HMGA2 cells
(§1) NU7026 (Calbiochem, San Diego, Calif.) was dissolved in DMSO at 5 mM and stored at −20° C. […] Cell lysates were removed and subjected to Western analyses using monoclonal anti-phospho-H2AX (Ser 139) antibodies. Control Western analyses were performed using monoclonal anti-actin antibodies.

H2AX phosphorylation = experiment: Western analysis of H2AX phosphorylation in HS578T and HCC1419 cells; assay type: cell-based
Procedure: as §1
Experiments were repeated using HS578T and HCC1419 cells treated with 2 μM rather than 1 μM Dox.

[2] = tested on: HeLa and HeLa/HMGA2 cells; experiment: MTT cell viability assay; assay type: cell-based; conditions: increasing concentrations, 72 hours
From the text: HS578T, HCC1419, and CHO cells

Pa-4/HMGA2 cells = experiment: FACS analysis after caffeine and Dox (G2/M, sub-G1); assay type: cell-based
Procedure: Pa-4 and Pa-4/HMGA2 cells were seeded at 50-80% confluency in 35 mm dishes and serum starved overnight to synchronize cell cycle. […] Following treatment, cells were fixed in 70% ethanol overnight, stained with 20 μg/ml propidium iodide, and subjected to FACS analysis.
Apoptosis was quantified by assessing sub-G1 cell populations.

Pa-4 cells = conditions: 4 mM caffeine 1 hour, then 1 μM Dox and 4 mM caffeine 48 hours
[3] = tested on: Pa-4 and Pa-4/HMGA2 cells; experiment: MTT cell viability assay; assay type: cell-based; conditions: Dox 0-7 μM or irinotecan 0-50 μM
[4] = biological target: Ku80 (80-kDa subunit of the DNA-PK holoenzyme), endogenous in HeLa and HeLa/HMGA2 cells (UniProt P13010); experiment: co-immunoprecipitation with anti-HA antibody from transiently transfected HeLa cells; reference set to 100%
[5] = biological target: Ku80 (80-kDa subunit of the DNA-PK holoenzyme), endogenous in HeLa and HeLa/HMGA2 cells (UniProt P13010); experiment: co-immunoprecipitation with anti-HA antibody from transiently transfected HeLa cells, Western for Ku80, quantitated and normalized
[6] = tested on: HeLa, HeLa/HMGA2, HeLa/HMGA2(2K/R) cells; experiment: MTT cell viability assay; assay type: cell-based; conditions: stable expression in HeLa cells, 72 hours
Procedure: FIG. 14: Association of HMGA2-dependent chemosensitization with HMGA2 SUMOylation. HeLa, HeLa/HMGA2, HeLa/HMGA2(2K/R) cells were subjected to treatment with increasing concentrations of Dox (upper panel) or cisplatin (lower panel) for 72 hours, as indicated. Cell viabilities were assessed using MTT assays. * denotes p<0.05; ** denotes p<0.01.
HMGA2 is a SUMOylation target (Cao, X. and Ann, D. K., unpublished observation). To investigate whether SUMOylation is involved in HMGA2-mediated chemosensitization, an HMGA2 mutant was constructed that carried Lysine to Arginine (Lys→Arg) point mutations at residues 66 and 67. These residues correspond to the SUMOyalation site (FIG. 13). The construct (HMGA2(2K/R)) was generated using previously described HA-HMGA2/pcDNA3.1 (Zentner 2001) as a template in conjunction with GeneEditor™ in vitro Site-Directed Mutagenesis System (Promega) and the mutagenesis primer set forth in SEQ ID NO:14. Desired mutations were confirmed by DNA sequencing analyses.

Ku80 = biological target: T1, Ku80 (Homo sapiens, UniProt P13010); experiment: Co-immunoprecipitation of HMGA2 constructs with Ku80 in transfected HeLa cells; assay type: cell-based; conditions: transient transfection of HeLa cells
T1 construct: Co-immunoprecipitation assays were performed following transient transfection of HeLa cells with these constructs; endogenous in cells; host or cells: HeLa, transiently transfected with HA-HMGA2 constructs
From the text: FIG. 18: Role of protein-protein and protein-DNA interactions in the HMGA/Ku80/Ku70 interaction. Individual wild type and engineered HMGA2 expression constructs was transfected into HeLa cells. The transfected cells were allowed to recover overnight in fresh medium prior to immunoprecipitation with an anti-HA antibody. Quantitation was done with BioRad Quantity One volume report program. After normalization with transfection efficiency and the expression level of HMGA2 and its mutant, percentage of Ku80/HMGA2 interaction is calculated by designating immunoprecipitated Ku80 with wild type HMGA2 as 100%.
To determine whether HMGA2 directly interacts with either subunit of the DNA-PK complex to dysregulate DNA-PK activation, co-immunoprecipitation assays were conducted using an anti-Ku70 antibody in HeLa and HeLa/HMGA2 cells. Cells were lysed for one hour in RIPA buffer (PBS, 1% NP40, 0.5% sodium deoxycholate, 0.1% SDS) supplemented with PMSF, aprotinin, and sodium orthovanadate immediately before use. The cell lysates were centrifuged at 10,000 rpm for 10 minutes and supernatants were collected. Protein concentrations were determined using Bradford protein assay. […] Samples were then analyzed by Western analyses. […]

HeLa cells = experiment: MTT viability of Dox-treated HeLa cells transfected with HMGA2 constructs; assay type: cell-based; conditions: transient transfection, Dox for 72 hours
Procedure: FIG. 19: Correlation between HMGA2 binding of Ku80 and chemosensitization towards Dox. HeLa cells were transfected with individual HMGA2 wild type and engineered constructs and allowed to recover overnight prior to reseeding for cell viability assay. Cells were treated with Dox for 72 hours and followed by MTT assays. ** denotes p<0.01.
To elucidate the relevance of HMGA2 complex formation with Ku80/Ku70, the viability of Dox-treated HeLa cells transfected with HMGA2 or its engineered mutants was examined. […] The augmented resistance to Dox, relative to that of vector-transfected HeLa cells, by HMGA2(Δ83-109) and HMGA2(4P/A) mutants may be due to protein-protein interactions arising from the remaining portion of HMGA2.

Sequence of Ku80 (80-kDa subunit of the DNA-PK holoenzyme), endogenous in HeLa and HeLa/HMGA2 cells (P13010 2-732 limits assumed): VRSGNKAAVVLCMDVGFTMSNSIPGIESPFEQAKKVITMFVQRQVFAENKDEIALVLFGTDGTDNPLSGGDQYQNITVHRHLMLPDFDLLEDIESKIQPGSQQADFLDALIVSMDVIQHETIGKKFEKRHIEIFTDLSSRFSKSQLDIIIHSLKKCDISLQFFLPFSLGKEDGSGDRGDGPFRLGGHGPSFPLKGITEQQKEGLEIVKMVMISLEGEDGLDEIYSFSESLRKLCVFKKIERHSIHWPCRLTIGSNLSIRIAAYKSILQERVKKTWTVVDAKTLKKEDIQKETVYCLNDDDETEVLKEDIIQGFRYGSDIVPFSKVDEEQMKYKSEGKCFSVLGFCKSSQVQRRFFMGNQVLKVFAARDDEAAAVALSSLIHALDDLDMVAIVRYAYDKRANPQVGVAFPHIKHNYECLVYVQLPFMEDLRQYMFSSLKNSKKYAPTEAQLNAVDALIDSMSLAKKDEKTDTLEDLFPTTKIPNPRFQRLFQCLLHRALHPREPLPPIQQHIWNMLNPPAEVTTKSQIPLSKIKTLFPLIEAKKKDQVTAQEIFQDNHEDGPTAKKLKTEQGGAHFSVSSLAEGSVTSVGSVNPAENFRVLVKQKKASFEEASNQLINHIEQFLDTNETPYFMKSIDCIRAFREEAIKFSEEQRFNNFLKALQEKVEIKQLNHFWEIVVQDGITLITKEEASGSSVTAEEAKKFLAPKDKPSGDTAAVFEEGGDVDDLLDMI
T1 sequence (P13010 2-732 limits assumed): as above
T1 sequence (P12956 2-609 partner limits assumed): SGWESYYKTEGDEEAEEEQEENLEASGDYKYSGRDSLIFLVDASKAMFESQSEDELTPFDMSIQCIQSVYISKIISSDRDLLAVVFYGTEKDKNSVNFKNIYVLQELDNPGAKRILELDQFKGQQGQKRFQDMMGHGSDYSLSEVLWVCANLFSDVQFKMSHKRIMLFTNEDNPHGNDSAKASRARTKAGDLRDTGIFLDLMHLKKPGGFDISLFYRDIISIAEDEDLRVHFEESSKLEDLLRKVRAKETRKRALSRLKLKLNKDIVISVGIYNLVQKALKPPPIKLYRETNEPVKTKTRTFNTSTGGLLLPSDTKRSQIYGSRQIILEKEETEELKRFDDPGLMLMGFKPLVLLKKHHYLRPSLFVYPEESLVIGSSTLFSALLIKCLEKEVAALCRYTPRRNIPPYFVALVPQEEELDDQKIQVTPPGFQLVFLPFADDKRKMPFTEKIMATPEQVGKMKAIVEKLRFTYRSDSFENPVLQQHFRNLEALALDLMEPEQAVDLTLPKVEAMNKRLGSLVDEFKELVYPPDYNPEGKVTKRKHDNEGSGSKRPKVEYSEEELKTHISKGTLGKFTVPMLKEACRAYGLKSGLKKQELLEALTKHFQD
Sequence of ATR (Q13535 whole entry): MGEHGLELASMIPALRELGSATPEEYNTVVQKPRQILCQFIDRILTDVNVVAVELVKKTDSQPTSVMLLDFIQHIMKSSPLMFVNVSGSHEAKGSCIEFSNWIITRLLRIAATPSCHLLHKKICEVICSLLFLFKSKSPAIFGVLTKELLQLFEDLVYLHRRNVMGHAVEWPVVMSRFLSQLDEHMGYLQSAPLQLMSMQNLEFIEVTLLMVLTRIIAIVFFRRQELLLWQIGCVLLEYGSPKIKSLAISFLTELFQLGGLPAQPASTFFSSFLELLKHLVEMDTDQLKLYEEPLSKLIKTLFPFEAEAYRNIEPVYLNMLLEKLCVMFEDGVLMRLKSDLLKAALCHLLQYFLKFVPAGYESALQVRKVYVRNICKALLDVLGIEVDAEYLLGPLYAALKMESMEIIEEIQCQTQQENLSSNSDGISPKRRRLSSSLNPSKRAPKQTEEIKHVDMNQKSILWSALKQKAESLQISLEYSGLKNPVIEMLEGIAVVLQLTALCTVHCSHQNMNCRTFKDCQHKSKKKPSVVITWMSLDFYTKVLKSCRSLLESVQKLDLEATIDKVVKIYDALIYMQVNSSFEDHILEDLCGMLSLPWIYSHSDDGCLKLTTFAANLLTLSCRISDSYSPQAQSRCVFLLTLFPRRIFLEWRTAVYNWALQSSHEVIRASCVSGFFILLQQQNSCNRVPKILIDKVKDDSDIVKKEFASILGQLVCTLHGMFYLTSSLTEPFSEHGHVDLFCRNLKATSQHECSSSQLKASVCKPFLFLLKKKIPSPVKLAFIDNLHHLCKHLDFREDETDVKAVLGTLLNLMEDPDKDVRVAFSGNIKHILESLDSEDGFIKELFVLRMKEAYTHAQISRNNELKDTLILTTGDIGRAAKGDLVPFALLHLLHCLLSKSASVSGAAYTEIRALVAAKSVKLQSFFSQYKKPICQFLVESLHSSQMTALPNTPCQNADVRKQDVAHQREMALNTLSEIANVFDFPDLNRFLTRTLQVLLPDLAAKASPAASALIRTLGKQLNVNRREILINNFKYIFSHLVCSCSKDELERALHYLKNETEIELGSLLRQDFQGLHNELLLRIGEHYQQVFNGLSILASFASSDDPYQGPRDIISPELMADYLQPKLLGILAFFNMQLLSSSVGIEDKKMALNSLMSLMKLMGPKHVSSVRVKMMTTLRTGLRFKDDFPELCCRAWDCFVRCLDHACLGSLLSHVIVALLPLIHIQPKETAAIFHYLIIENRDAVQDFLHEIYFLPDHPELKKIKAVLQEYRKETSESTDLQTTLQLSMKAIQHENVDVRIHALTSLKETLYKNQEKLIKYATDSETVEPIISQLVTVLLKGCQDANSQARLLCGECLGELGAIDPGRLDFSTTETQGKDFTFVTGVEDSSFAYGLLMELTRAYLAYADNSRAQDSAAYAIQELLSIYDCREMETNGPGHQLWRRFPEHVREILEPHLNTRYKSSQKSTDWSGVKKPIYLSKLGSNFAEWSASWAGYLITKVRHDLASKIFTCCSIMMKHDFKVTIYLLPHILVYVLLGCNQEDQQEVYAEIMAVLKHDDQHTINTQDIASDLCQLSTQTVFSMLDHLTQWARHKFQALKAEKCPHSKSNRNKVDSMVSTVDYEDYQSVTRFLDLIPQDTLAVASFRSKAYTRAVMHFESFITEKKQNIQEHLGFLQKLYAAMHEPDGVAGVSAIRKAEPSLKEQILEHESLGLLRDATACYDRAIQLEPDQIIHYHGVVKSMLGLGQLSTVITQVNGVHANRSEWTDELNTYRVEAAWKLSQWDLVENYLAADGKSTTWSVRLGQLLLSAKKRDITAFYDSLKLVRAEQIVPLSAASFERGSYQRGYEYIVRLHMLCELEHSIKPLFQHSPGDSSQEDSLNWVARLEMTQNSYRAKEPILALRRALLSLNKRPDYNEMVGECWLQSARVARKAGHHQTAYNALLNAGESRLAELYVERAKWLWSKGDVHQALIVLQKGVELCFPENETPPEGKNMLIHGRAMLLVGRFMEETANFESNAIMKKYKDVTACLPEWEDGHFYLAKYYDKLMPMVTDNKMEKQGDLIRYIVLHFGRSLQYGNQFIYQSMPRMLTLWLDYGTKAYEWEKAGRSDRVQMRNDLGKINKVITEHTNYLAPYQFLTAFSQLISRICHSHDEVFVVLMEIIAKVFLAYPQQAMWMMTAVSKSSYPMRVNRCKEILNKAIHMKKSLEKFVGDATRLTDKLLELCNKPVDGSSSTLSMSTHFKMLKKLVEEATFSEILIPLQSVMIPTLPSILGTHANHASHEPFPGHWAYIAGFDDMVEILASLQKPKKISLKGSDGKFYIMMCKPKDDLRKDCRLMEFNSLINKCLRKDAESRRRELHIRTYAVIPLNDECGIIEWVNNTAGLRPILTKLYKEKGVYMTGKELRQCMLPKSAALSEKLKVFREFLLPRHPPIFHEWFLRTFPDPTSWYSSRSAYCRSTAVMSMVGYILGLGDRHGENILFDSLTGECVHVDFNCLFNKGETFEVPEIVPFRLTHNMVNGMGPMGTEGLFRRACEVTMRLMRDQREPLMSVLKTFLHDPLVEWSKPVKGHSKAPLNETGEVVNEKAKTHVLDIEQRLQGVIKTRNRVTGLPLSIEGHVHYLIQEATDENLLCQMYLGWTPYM
Sequence of ATR (Q8WXE1 whole entry partner): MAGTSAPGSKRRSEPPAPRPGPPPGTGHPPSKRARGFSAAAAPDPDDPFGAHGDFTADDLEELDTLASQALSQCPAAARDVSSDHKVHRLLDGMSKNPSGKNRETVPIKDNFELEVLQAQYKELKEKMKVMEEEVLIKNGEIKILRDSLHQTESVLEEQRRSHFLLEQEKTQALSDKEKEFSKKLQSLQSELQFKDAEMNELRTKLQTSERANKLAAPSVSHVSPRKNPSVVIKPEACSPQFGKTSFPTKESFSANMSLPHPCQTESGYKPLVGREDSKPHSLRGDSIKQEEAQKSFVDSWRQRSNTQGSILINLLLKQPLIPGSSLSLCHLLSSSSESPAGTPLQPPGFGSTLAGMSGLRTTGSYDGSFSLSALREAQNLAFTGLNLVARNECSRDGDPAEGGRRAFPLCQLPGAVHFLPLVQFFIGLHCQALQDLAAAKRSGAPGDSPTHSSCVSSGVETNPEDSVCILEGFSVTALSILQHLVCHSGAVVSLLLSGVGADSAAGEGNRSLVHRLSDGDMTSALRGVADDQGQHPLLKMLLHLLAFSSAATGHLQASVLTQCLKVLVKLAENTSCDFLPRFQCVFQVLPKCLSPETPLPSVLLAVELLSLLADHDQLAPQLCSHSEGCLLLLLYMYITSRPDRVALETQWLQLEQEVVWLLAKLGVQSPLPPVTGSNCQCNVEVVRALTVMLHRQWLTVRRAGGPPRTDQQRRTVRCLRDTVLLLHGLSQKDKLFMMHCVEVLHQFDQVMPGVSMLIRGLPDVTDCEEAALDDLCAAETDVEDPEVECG

O=c1cc(N2CCOCC2)oc2c1ccc1ccccc12 [NU7026]
activity against ATM (ATM): inactive
selectivity for DNA-PK (DNA-PK): highly selective for DNA-PK
activity against ATR (ATR): inactive
effect of pre-treatment on basal or Dox-induced H2AX phosphorylation ([1]; Pa-4/HMGA2 cells): little or no effect
effect of pre-treatment on Dox-induced H2AX phosphorylation ([1]; Pa-4 cells): attenuated
effect of pre-treatment on Dox-induced H2AX phosphorylation (H2AX phosphorylation; HCC1419 cells, 2 μM Dox): downregulated
effect of pre-treatment on H2AX phosphorylation (H2AX phosphorylation; HS578T cells, with or without 2 μM Dox): did not decrease H2AX phosphorylation in either the presence or absence of Dox treatment

CC(=O)O[C@H]1C(=O)[C@@]2(C)[C@H]([C@H](OC(=O)c3ccccc3)[C@]3(O)C[C@H](OC(=O)[C@H](O)[C@@H](NC(=O)c4ccccc4)c4ccccc4)C(C)=C1C3(C)C)[C@]1(OC(C)=O)CO[C@@H]1C[C@@H]2O [Taxol]
Taxol-induced cell growth inhibition, HeLa versus HeLa/HMGA2 [2]: no substantial difference in the response to Taxol between HeLa and HeLa/HMGA2 cells

Cn1c(=O)c2c(ncn2C)n(C)c1=O [caffeine]
cell cycle distribution / cells in G2/M, single agent (Pa-4/HMGA2 cells; 4 mM caffeine or 1 μM Dox, 48 hours): decreased the number of cells in G2/M
apoptosis with both caffeine and Dox (Pa-4/HMGA2 cells; caffeine with Dox): apoptosis levels greater than those observed after treatment with caffeine or Dox alone
effect on Dox-induced G2/M arrest (Pa-4 cells): greatly reduced Dox-induced G2/M arrest

CCc1c2c(nc3ccc(OC(=O)N4CCC(N5CCCCC5)CC4)cc13)-c1cc3c(c(=O)n1C2)COC(=O)[C@]3(O)CC [irinotecan]
difference in decrease of viability between Pa-4/HMGA2 and Pa-4 cells ([3]; 72 hours): little difference observed between the two cell types
cell viability / growth inhibition ([3]; 72 hours after treatment): dose-dependent growth inhibition in both cell types

HA-HMGA2 (HA-tagged wild-type high-mobility group A2 protein expressed from pcDNA3.1/HA-HMGA2 in HeLa cells) (from UniProt P52926 1-109)
percentage of Ku80/HMGA2 interaction [4]: 100%

HA-HMGA2(Δ66-109) (from UniProt P52926 1-65)
decrease of the interaction with Ku80 against wild-type HMGA2 [5]: > 70%

HA-HMGA2(Δ83-109) (from UniProt P52926 1-82)
decrease of the interaction with Ku80 against wild-type HMGA2 [5]: > 50%

B1: HMGA2(2K/R): SUMOylation-defective HMGA2 mutant with Lys→Arg point mutations at residues 66 and 67 (protein, UniProt P52926 2-109, looked up, variant K66R K67R)
High mobility group protein …: SARGEGAGQPSTSAQGQPAAPAPQKRGRGRPRKQQQEPTGEPSPKRPRGRPKGSKNKSPSKAAQRRAEATGEKRPRGRPRKWPQQVVQKKPAQEETEETSSQESAEED
effect on cytotoxicity elicited by Dox [6]: partially reversed the cytotoxicity
effect on cytotoxicity elicited by cisplatin [6]: partially reversed the cytotoxicity

B2: HMGA2(Δ1-24): truncated HMGA2 carrying deletion of the N-terminus (protein, UniProt P52926 25-109, looked up, fragment)
chain: QKRGRGRPRKQQQEPTGEPSPKRPRGRPKGSKNKSPSKAAQKKAEATGEKRPRGRPRKWPQQVVQKKPAQEETEETSSQESAEED
modifications: HA tag
notes: truncated HMGA2 carrying deletion of the N-terminus
ability to interact with Ku80 (Ku80): retained the full ability to interact with Ku80
sensitivity of transfected HeLa cells to Dox (HeLa cells): enhanced the sensitivity of HeLa cells to Dox

B3: HMGA2(4P/A): HMGA2 mutant with four Pro→Ala mutations at amino acid positions 48, 52, 76, and 80 (protein)
chain: MSARGEGAGQPSTSAQGQPAAPAPQKRGRGRPRKQQQEPTGEPSPKRARGRAKGSKNKSPSKAAQKKAEATGEKRARGRARKWPQQVVQKKPAQEETEETSSQESAEED
modifications: left off: small tags and cut ends
ability to interact with Ku80 (Ku80): almost completely abrogated the binding of HMGA2 to Ku80
sensitivity of transfected HeLa cells to Dox (HeLa cells): relatively greater resistance to Dox-treatment

B4: HMGA2(Δ83-109): truncated HMGA2 carrying deletion of the C-terminus (protein, UniProt P52926 1-82, looked up, fragment)
chain: MSARGEGAGQPSTSAQGQPAAPAPQKRGRGRPRKQQQEPTGEPSPKRPRGRPKGSKNKSPSKAAQKKAEATGEKRPRGRPRK
modifications: HA tag
notes: truncated HMGA2 carrying deletion of the C-terminus
sensitivity of transfected HeLa cells to Dox (HeLa cells): relatively greater resistance to Dox-treatment
